Values quoted from earlier work in patent publication US5948422A, “Oral dosage-forms containing a β-lactam antibiotic” (Yamanouchi Europe B.V., priority 1995, dated 1999).
Structures can show the parent of a compound that is named as a salt.

Conditions: compared with free acid, other salts and ester

bioavailability on oral administration: best bioavailability
SMILES: CC1(C)S[C@@H]2[C@H](NC(=O)COc3ccccc3)C(=O)N2[C@H]1C(=O)O [potassium salt, phenoxymethylpenicillin potassium]
